Here are results for one molecule from paper PMC6470523, “Introduction of Nonacidic Side Chains on 6-Ethylcholane Scaffolds in the Identification of Potent Bile Acid Receptor Agonists with Improved Pharmacokinetic Properties” (Molecules, 2019).

In brackets after ≈: the same amount, converted by molar mass.

The nature of data set [1]: Liver microsomal stability. In kind it is in vitro ADME, mouse. To be noted: liver microsomes. The method, then:
(§1) Chromatography was performed using an Alliance pump system coupled to a Q-ToF Premiere (Waters Co., Milford, MA, USA). The mixture was separated on a Luna 5 µm C8(2) 100° A 150 × 2 mm from Phenomenex. The mobile phase consisted of 0.2% formic acid (FA) in water as solvent A and 0.2% FA in acetonitrile as solvent B at a flow rate of 200 μL/min. The gradient was as follows: 0–2 min (70% A and 30% B), 2–20 min (5% A and 95% B), 20–30 min (70% A and 30% B). The detection of analytes was achieved by electrospray ionization (ESI) in the positive mode with the appropriate MS/MS transitions, if necessary.
Male mouse (CD-1) liver microsomes (Sigma-Aldrich, St. Louis, MO, USA) were used. All incubations were performed in duplicate in a shaking water bath at 37 °C. The incubation mixtures contained 1 μM compound with 1% DMSO used as a vehicle, mouse liver microsomes (0.3 mg of microsomal protein per mL), 5 mM MgCl2, 1 mM NADP, 5 mM glucose 6-phosphate, 0.4 U·mL^−1 glucose 6-phosphate dehydrogenase, and 50 mM potassium phosphate buffer (pH 7.4) in a final volume of 0.5 mL. Aliquots were removed at 0, 5, 10, 20, 30, and 40 min after microsome addition and the reaction was stopped by adding 200 μL of ice-cold acetonitrile. After two hours, the samples were centrifuged for 10 min at 10,000 rpm, and the supernatants were transferred in matrix tubes for LC-MS/MS analysis. LC-MS/MS analysis were carried out setting the m/z window around the value of the MH^+ of the unmodified compounds.
Propranolol, known as a high hepatic clearance drug in rodents, was used as a quality-control compound for the microsomal incubations. The slope of the linear regression of the curve obtained reporting the natural logarithm of compound area versus incubation time (−k) was used in the conversion to in vitro t1/2 values by t1/2 = −ln(2)/k. In vitro intrinsic clearance (Clint expressed as μL/min/mg) was calculated according to the following formula: Clint = volume of reaction (µL)/t1/2(min)/protein of liver microsomes (mg). The percentage of unmodified compound has been calculated assuming the area of the compound peak at time 0 min as 100%.

Data set [2] can be described thus: Aqueous solubility measurement (PBS pH 7.4, LC-MS). In kind it is physicochemical. To be noted: aqueous buffer, kinetic from dmso stock; aqueous solubility at pH 7.4 (PBS), 24 h room temperature. Here is the method: as §1
Ten microliters of a 10 mM solution in DMSO of each compound was diluted either in 490 μL of PBS pH 7.4 or in organic solvent MeOH (in triplicate). The tubes were gently shaken 24 h at room temperature, then centrifuged for 5 min at 4000 rpm. 10 microliters of sample were diluted in 490 μL of MeOH. The solubility is determined by the ratio of mass signal area PBS/organic solvent.

The term microsomal CLint denotes the capacity of the preparation to metabolise the compound, expressed as a volume cleared per time. A lower microsomal CLint goes with greater metabolic stability. As a reminder, the solubility is the concentration that dissolves in the medium under given conditions. A low value points to a poorly soluble substance. With `CCC1C(O)C2C3CCC(C(C)CO)C3(C)CCC2C2(C)CCCCC12` (stereo not drawn) [compound 6, 6α-Ethyl-7α-hydroxy-23,24-dinor-5β-cholan-22-ol], the “Percentage of compound remaining in solution after 40 min incubation” value in data set [1] (40 min incubation) was determined as 79.2%. The molecule further gave a microsomal CLint at 1 µM in data set [1] (male, CD-1, mouse, pH 7.4, 1 μM compound, 37 °C) of 19.7 µL/min/mg. Besides, the half-life at 1 µM in data set [1] (male, CD-1, mouse, pH 7.4, 1 μM compound, 37 °C, read-out: t½) is 117 min. Also, the concentration in solution in data set [2] (solubility at 24 h) came to 162 µM (≈ 58.7 µg/mL).
